According to patent US5834452A, “1- or 6-hydroxylated steroids” (Roussel Uclaf, priority 1996, dated 1998):

Target: T1, Human estrogen receptor (HOR) (Homo sapiens, UniProt P03372)
T1 construct: made in house; host or cells: SF9 insect cells (baculovirus), lysate supernatant
T1 sequence (P03372 1-595): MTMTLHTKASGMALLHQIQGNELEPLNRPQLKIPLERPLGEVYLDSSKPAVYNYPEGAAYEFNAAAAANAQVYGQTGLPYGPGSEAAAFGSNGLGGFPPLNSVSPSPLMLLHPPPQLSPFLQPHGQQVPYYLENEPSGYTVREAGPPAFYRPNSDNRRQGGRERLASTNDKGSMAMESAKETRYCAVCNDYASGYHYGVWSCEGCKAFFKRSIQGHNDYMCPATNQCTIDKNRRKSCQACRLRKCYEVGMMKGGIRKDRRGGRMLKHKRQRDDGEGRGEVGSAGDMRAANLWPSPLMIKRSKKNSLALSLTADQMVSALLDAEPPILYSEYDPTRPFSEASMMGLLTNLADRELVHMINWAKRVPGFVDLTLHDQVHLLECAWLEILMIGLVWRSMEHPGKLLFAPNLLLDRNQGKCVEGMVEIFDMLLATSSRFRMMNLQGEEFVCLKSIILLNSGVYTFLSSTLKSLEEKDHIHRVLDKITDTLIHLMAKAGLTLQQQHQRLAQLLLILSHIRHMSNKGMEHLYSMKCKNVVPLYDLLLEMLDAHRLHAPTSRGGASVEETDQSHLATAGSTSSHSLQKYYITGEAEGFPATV
Assay: Relative bond affinity (RBA), recombinant human estrogen receptor, charcoal dextran technique
Format: binding
Settings: 24 h at 0° C., Estradiol = 100
From the text: The human recombinant receptor (HGR, HPR, HAR, HMR, HER) was used.
Human estrogen receptor (HOR):
A supernatant of SF9 cells containing the recombinant human estrogen receptor was obtained by the process described above for the progestogen receptor using the cDNA fragment described in the expression vector HEGO by Tora et al (The EMBO Journal, (1989), Vol. 8 No. 7, p. 1981-1986) containing the region coding for the human estrogen receptor of "wild type" with a glycine in position 400. The cells obtained were lysed in the lysis buffer (1).
The supernatant was incubated at 0° C. for 24 hours with a constant concentration (T) of tritiated estradiol in the presence of increasing concentrations of either unlabelled estradiol (0-1000×10^-9 M), or the unlabelled product to be tested (1 to 25000×10^-9 M). The concentration of bound tritiated estradiol (B) was then measured in each incubate using the charcoal dextran adsorption technique.
Calculation of the relative bond affinity (RBA).
The following two curves were drawn: the percentage of bound tritiated hormone B/BO as a function of the logarithm of the concentration of unlabelled reference hormone or as a function of the logarithm of the concentration of unlabelled test product. The straight line of the following equation was determined: […]
The intersections of the straight line I50 and the curves allowed the evaluation of the concentrations of unlabelled reference hormone (CH) and of the unlabelled test product (CX) which inhibited by 50% the specific binding of the tritiated hormone on the receptor.
The relative bond affinity (RBA) of the test product was determined by the equation:
The RBA's of reference products Estradiol, Progesterone Dexamethasone, Testosterone and Aldosterone were arbitrarily taken as being equal to 100.

Row | RBA, Human estrogen receptor | RBA, Human estrogen receptor (listed as product B) | RBA, Human estrogen receptor (listed as Trimegesterone) | Compound
1 | 0 | zero | – | C[C@H](O)C(=O)[C@@]1(C)CC[C@H]2[C@@H]3C[C@@H](O)C4=CC(=O)CCC4=C3CC[C@@]21C [Product B, [6β, 17β-(S)]-6-hydroxy-17-(2-hydroxy-1-oxopropyl)-17-methyl-Δ^4,9-estradiene-3-one]
2 | 0 | – | zero | C[C@H](O)C(=O)[C@@]1(C)CC[C@H]2[C@@H]3CCC4=CC(=O)CCC4=C3CC[C@@]21C [Trimegestone, [17β-(S)]-17-(2-hydroxy-1-oxopropyl)-17-methyl-Δ^4,9-estradiene-3-one, reference compound]
